Test results published in publication PMC6429263, “Evolution and Antibacterial Evaluation of 8-Hydroxy-cycloberberine Derivatives as a Novel Family of Antibacterial Agents Against MRSA” (Molecules, 2019).

Experiments:
VISA ATCC 700698 = experiment: MIC, agar dilution, VISA ATCC 700698; type: cell-based; settings: Staphylococcus aureus; VISA ATCC 700698; read-out: MIC
VISA ATCC 700699 = experiment: MIC, agar dilution, VISA ATCC 700699; type: cell-based; settings: Staphylococcus aureus; VISA ATCC 700699; read-out: MIC
S.s ATCC 15305 = experiment: MIC, agar dilution, S.s ATCC 15305; type: cell-based; settings: Staphylococcus saprophyticus, ATCC15305; S. saprophyticus ATCC 15305; read-out: MIC
MRSA ATCC-B AA-1708 = experiment: MIC, agar dilution, MRSA ATCC-BAA-1708 (mupA positive); type: cell-based; settings: Staphylococcus aureus; MRSA ATCC-BAA-1708, mupA positive (mupirocin resistance); read-out: MIC
MRSE 16-5 = experiment: MIC, agar dilution, MRSE 16-5; type: cell-based, S. epidermidis; settings: Staphylococcus epidermidis; MRSE 16-5; read-out: MIC
MSSE 16-5 = experiment: MIC, agar dilution, MSSE 16-5 (clinical isolate); type: cell-based, S. epidermidis; settings: Staphylococcus epidermidis; MSSE 16-5, isolated from patients in China; read-out: MIC
[1] = test system: drug-susceptible strains: MSSA, MSSE, S. saprophyticus, S. hominis; experiment: MIC across the panel of drug-susceptible Gram-positive strains; type: cell-based; settings: drug-susceptible Gram-positive strains of Table 1; for MIC: 18 h, read-out: MICs (range over strains)
Excerpt: SAR study for antibacterial activity against drug-susceptible Gram-positive bacteria was initially carried out, taking Lev and compound 1 as reference drugs. […] Bacteria strains used in this study were from the ATCC collection and clinical isolates in Chinese hospitals. The influence of the methylenedioxy ring was explored first, and compounds 6 and 10 were created and tested.

MRSA 13-18 = experiment: MIC, agar dilution, MRSA 13-18; type: cell-based; settings: Staphylococcus aureus; MRSA 13-18; read-out: MIC
S.h ATCC 35982 = experiment: MIC, agar dilution, S.h ATCC 35982; type: cell-based; settings: Staphylococcus hominis, ATCC35982; S. hominis ATCC 35982; read-out: MIC
MRSA 13-23 = experiment: MIC, agar dilution, MRSA 13-23; type: cell-based; settings: Staphylococcus aureus; MRSA 13-23; read-out: MIC
MRSA ATCC -BAA-976 = experiment: MIC, agar dilution, MRSA ATCC-BAA-976 (clindamycin-resistant); type: cell-based; settings: Staphylococcus aureus; MRSA ATCC-BAA-976, clindamycin-resistant S. aureus; read-out: MIC
MRSE 13-3 = experiment: MIC, agar dilution, MRSE 13-3; type: cell-based, S. epidermidis; settings: Staphylococcus epidermidis; MRSE 13-3; read-out: MIC
MSSE ATCC 12228 = experiment: MIC, agar dilution, MSSE ATCC 12228; type: cell-based, S. epidermidis; settings: Staphylococcus epidermidis, ATCC12228; MSSE ATCC 12228; read-out: MIC
MSSA 16-1 = experiment: MIC, agar dilution, MSSA 16-1 (clinical isolate); type: cell-based, S. aureus; settings: Staphylococcus aureus; MSSA 16-1, isolated from patients in China; read-out: MIC
MSSA 15 = experiment: MIC, agar dilution, MSSA 15 (clinical isolate); type: cell-based, S. aureus; settings: Staphylococcus aureus; MSSA 15, isolated from patients in China; read-out: MIC
MRSA ATCC 43300 = experiment: MIC, agar dilution, MRSA ATCC 43300; type: cell-based; settings: Staphylococcus aureus; MRSA ATCC 43300; read-out: MIC
MRSA 16-34 = experiment: MIC, agar dilution, MRSA 16-34; type: cell-based; settings: Staphylococcus aureus; MRSA 16-34; read-out: MIC
MSSA ATCC 29213 = experiment: MIC, agar dilution, MSSA ATCC 29213; type: cell-based, S. aureus; settings: Staphylococcus aureus; MSSA ATCC 29213; read-out: MIC
Stability in whole blood = type: in vitro ADME, SD rat; settings: for Rr (remaining ratio): whole blood, 37 °C
Protocol: Fresh blood was collected on the day of experiment from SD rats and pre-warmed in a water bath at 37 °C. 10 mM test compound or Ems stock solutions were prepared in DMSO, and then diluted with 45% MeOH/H2O to achieve 100 μM dosing solutions. Each dosing solution (2 μL) was incubated with 98 µL of blank blood at 37 °C in water bath for 0, 0.5, 1, 3, 7 and 24 h, respectively. At the end of incubation, for each sample, 100 μL water and 800 μL of stop solution (200 ng/mL tolbutamide plus 20 ng/mL buspirone in ACN) were immediately added to precipitate protein and centrifuge at 4,000 rpm for 20 min. An aliquot of supernatant (100 μL) was then extracted, mixed with 200 μL H2O and then shook at 800 rpm for about 10 min before submitting to LC-MS/MS analysis. The experiment was repeated two times.

Row | MIC (VISA ATCC 700698) [µg/mL] | MIC (VISA ATCC 700699) [µg/mL] | MIC (S.s ATCC 15305) [µg/mL] | MIC (MRSA ATCC-B AA-1708) [µg/mL] | MIC (MRSE 16-5) [µg/mL] | MIC (MSSE 16-5) [µg/mL] | MIC [1] [µg/mL] | MIC (MRSA 13-18) [µg/mL] | MIC (S.h ATCC 35982) [µg/mL] | MIC (MRSA 13-23) [µg/mL] | MIC (MRSA ATCC -BAA-976) [µg/mL] | MIC (MRSE 13-3) [µg/mL] | MIC (MSSE ATCC 12228) [µg/mL] | MIC (MSSA 16-1) [µg/mL] | MIC (MSSA 15) [µg/mL] | MIC (MRSA ATCC 43300) [µg/mL] | MIC (MRSA 16-34) [µg/mL] | MIC (MSSA ATCC 29213) [µg/mL] | Compound | also measured
1 | 4 | 8 | 16 | 8 | 4 | 4 | 2 to 8 | 8 | 8 | 8 | 4 | 64 | 8 | 4 | 8 | 8 | 4 | 8 | COc1ccc2c(c[n+]3ccc4cc5c(c6c(Cc7ccc(Cl)cc7)cc2c3c46)OCO5)c1O [13e, 1,2-Methylenedioxy-8-hydroxy-9-methoxy-13-p-chlorobenzylcycloberberine chloride] | –
2 | – | – | – | – | – | – | – | – | – | – | – | – | – | – | – | – | – | – | CCOC(=O)[C@H](CCc1ccccc1)N[C@@H](C)C(=O)N1CCC[C@H]1C(=O)O [Ems, enalapril] | stability in whole blood (Stability in whole blood): completely decomposed; Rr (remaining ratio) (Stability in whole blood; 0 h): 100%; Rr (remaining ratio) (Stability in whole blood; 0.5 h): 37.5%; Rr (remaining ratio) (Stability in whole blood; 1 h): 9.1%; Rr (remaining ratio) (Stability in whole blood; 3 h): 0%; Rr (remaining ratio) (Stability in whole blood; 7 h): 0%; Rr (remaining ratio) (Stability in whole blood; 24 h): 0%
3 | 8 | 4 | 16 | 4 | 8 | 4 | 4 to 16 | 16 | 8 | 8 | 8 | 32 | 8 | 4 | 8 | 8 | 4 | 8 | COc1ccc2c(c[n+]3ccc4cc5c(c6c(Cc7ccccc7[N+](=O)[O-])cc2c3c46)OCO5)c1O [13p, 1,2-Methylenedioxy-8-hydroxy-9-methoxy-13-o-nitrobenzylcycloberberine chloride] | –
4 | 4 | 4 | 16 | 4 | 4 | 2 | 2 to 16 | 8 | 8 | 8 | 8 | 4 | 4 | 4 | 4 | 8 | 4 | 4 | COc1ccc2c(c[n+]3ccc4cc5c(c6c(Cc7cccc(C)c7)cc2c3c46)OCO5)c1O [13h, 1,2-Methylenedioxy-8-hydroxy-9-methoxy-13-m-methylbenzylcycloberberine chloride] | –
5 | 8 | 8 | 8 | 8 | 16 | 8 | 8 to 16 | 16 | 8 | 16 | 16 | 8 | 16 | 8 | 16 | 16 | 8 | 8 | COc1ccc2c(c[n+]3ccc4cc5c(c6c(Cc7ccccc7)cc2c3c46)OCO5)c1O [13a, 1,2-Methylenedioxy-8-hydroxy-9-methoxy-13-benzylcycloberberine chloride] | –
6 | 32 | 32 | 32 | 16 | 16 | 16 | – | 32 | 32 | 64 | 64 | 32 | 8 | 32 | 16 | 32 | 16 | 32 | COc1ccc2c(c[n+]3c4c2ccc2c(O)c(O)cc(c24)CC3)c1O [compound 10, 1,2,8-Trihydroxy-9-methoxycycloberberine Chloride] | antimicrobial activity [1]: lost the antimicrobial activities partially or completely
7 | > 64 | > 64 | > 64 | > 64 | > 64 | > 64 | – | > 64 | > 64 | > 64 | > 64 | > 64 | > 64 | > 64 | > 64 | > 64 | > 64 | > 64 | COc1ccc2c(c[n+]3c4c2ccc2c(OC)c(OC)cc(c24)CC3)c1O [compound 6, 1,2-Dimethoxy-8-hydroxy-9-methoxycycloberberine Chloride] | antimicrobial activity [1]: lost the antimicrobial activities partially or completely
8 | > 64 | > 64 | > 64 | > 64 | > 64 | > 64 | – | > 64 | > 64 | > 64 | > 64 | > 64 | > 64 | > 64 | > 64 | > 64 | > 64 | > 64 | COc1ccc2c(c[n+]3ccc4cc5c(c6c(Cc7ccc(F)cc7)cc2c3c46)OCO5)c1O [13b, 1,2-Methylenedioxy-8-hydroxy-9-methoxy-13-p-fluorobenzylcycloberberine chloride] | –
9 | > 64 | > 64 | > 64 | > 64 | 64 | > 64 | – | > 64 | > 64 | > 64 | > 64 | 64 | > 64 | > 64 | > 64 | > 64 | > 64 | > 64 | COc1ccc2c(c[n+]3ccc4cc5c(c6c(Cc7ccccc7C)cc2c3c46)OCO5)c1O [13g, 1,2-Methylenedioxy-8-hydroxy-9-methoxy-13-o-methylbenzylcycloberberine chloride] | –
10 | 64 | 32 | 64 | 32 | 32 | 32 | – | 32 | 64 | 32 | 64 | 32 | 32 | 32 | 32 | 64 | 32 | 32 | COc1ccc2c(c[n+]3ccc4cc5c(c6c(Cc7ccc(OC(F)(F)F)cc7)cc2c3c46)OCO5)c1O [13l, 1,2-Methylenedioxy-8-hydroxy-9-methoxy-13-p-trifluoromethoxybenzylcyclo berberine chloride] | –
11 | > 64 | > 64 | > 64 | > 64 | > 64 | > 64 | – | > 64 | > 64 | > 64 | > 64 | > 64 | > 64 | > 64 | > 64 | > 64 | > 64 | > 64 | COc1ccc2c(c[n+]3ccc4cc5c(c6c(Cc7ccccc7C#N)cc2c3c46)OCO5)c1O [13m, 1,2-Methylenedioxy-8-hydroxy-9-methoxy-13-o-cyanbenzylcycloberberine chloride] | –
